According to patent US20070259856A1, “Method for Activating Trpv4 Channel Receptors by Agonists” (priority 2004, published 2007):
Marks after values point to notes of the source that are not given here.

Assays:
aggrecanase = assay: IL-1 induced aggrecanase production, chondrocyte-based aggrecanase peptide cleavage assay; format: cell-based, bovine; conditions: Bos taurus
From the text: Aggrecanases (ADAMTSs), in conjunction with MMPs, degrade aggrecan, one of the major matrix components in articular cartilage. […] 2003; 48(1): 119-133].

[1] = tested on: bovine articular cartilage explants; assay: IL-1 induced collagen degradation (hydroxyproline) in bovine articular cartilage explants; format: cell-based
Summary of the method: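 Bovine cartilage explants stimulated with IL-1 for 18 days with or without compound at 1 uM, media and treatments renewed every 2-4 days. Collagen breakdown in media measured after day 10 by colorimetric hydroxyproline assay.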

TRPV4 channel receptor [2] = target: T1, TRPV4 channel receptor (Bos taurus, UniProt A0A8F4X677); assay: Ca2+ influx in bovine articular chondrocytes (FlexStation); format: cell-based; conditions: bovine chondrocytes
T1 construct: endogenous in cells; host or cells: bovine articular chondrocytes
T1 sequence (A0A8F4X677 1-871): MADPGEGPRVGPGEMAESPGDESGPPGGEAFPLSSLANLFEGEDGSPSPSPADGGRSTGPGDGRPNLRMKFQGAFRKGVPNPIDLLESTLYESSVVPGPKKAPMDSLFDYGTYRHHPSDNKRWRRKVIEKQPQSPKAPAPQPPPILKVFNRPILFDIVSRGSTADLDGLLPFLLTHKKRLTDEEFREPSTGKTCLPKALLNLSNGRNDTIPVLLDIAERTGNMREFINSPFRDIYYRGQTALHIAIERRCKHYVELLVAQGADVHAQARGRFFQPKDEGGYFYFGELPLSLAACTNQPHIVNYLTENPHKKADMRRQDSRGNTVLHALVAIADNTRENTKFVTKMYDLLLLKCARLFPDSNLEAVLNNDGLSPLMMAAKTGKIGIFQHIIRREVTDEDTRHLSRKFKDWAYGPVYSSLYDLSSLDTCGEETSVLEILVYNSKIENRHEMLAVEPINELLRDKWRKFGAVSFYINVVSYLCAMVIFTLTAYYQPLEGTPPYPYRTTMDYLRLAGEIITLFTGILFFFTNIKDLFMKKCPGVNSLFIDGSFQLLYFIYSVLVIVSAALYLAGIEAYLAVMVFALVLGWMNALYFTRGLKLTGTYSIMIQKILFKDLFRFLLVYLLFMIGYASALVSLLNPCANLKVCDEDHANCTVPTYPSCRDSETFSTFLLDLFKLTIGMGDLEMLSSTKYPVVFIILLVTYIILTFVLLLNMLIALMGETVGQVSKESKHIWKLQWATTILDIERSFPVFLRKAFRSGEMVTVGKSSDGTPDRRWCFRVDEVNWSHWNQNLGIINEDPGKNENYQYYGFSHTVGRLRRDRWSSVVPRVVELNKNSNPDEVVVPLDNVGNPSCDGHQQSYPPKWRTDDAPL

human cartilage explants = assay: Aggrecan degradation (GAG, DMMB) in human cartilage explants; format: cell-based; conditions: for GAG Mean ± SEM: cumulative, 21 days
Procedure: Because the progression of aggrecan degradation in response to IL-1 in human cartilage is slower than in bovine cartilage, culture media was removed and replaced with fresh treatments every 2-3 days for approximately 3 weeks. For each timepoint, GAG levels were measured by DMMB assay, and cumulative data released over the entire 3 week culture period was calculated.
The data represents cumulative aggrecan degradation after 21 days in culture. […] In addition, Formula IId caused a concentration-dependent reduction of IL-1-induced aggrecan degradation. […] The estimated IC50's shown in Table 7 are very similar to those IC50's calculated from IL-1-stimulated bovine cartilage.

TRPV4 channel receptor [3] = target: T2, TRPV4 channel receptor (Homo sapiens, UniProt Q9HBA0); assay: Ca2+ influx in human articular chondrocytes (FlexStation)
T2 sequence (Q9HBA0 whole entry): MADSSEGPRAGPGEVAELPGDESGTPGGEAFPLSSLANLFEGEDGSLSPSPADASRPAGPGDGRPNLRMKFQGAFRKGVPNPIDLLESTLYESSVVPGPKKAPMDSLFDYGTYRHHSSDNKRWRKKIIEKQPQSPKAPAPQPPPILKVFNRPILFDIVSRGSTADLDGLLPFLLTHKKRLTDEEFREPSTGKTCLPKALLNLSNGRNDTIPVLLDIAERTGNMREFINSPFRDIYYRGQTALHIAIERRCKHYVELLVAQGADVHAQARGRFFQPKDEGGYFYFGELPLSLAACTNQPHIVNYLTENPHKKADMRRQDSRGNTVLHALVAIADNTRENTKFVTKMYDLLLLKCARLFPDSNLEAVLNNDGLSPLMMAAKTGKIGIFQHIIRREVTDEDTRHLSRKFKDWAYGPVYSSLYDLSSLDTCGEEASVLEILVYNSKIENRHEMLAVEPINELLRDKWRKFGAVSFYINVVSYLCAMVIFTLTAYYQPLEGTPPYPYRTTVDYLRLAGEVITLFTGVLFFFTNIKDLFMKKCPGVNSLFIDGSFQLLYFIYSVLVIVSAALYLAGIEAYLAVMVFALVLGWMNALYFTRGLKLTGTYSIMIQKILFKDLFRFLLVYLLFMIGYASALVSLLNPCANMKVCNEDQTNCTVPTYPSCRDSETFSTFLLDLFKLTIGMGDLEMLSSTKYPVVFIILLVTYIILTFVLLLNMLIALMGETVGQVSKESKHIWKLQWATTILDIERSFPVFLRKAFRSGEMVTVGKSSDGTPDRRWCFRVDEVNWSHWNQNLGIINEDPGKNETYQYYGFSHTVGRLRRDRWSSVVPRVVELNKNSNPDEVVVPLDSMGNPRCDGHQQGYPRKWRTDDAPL

[4] = tested on: bovine articular cartilage explants; assay: IL-1 induced aggrecan degradation (GAG release, DMMB) in bovine articular cartilage explants; format: cell-based; conditions: Bos taurus; IL-1-stimulated bovine cartilage
From the text: Articular cartilage explants isolated from newborn calves at slaughter were placed in culture, and aggrecan degradation was initiated through stimulation with IL-1. Since aggrecan degradation in this model is believed to be mediated by aggrecanase, TRPV4 channel receptor agonists that are active in the chondrocyte-based aggrecanase peptide assay (Example 11) may also be effective inhibitors in the cartilage explant assay, presumably by blocking aggrecanase production in these tissues.
At the end of the culture period, conditioned media were assayed for glycosaminoglycan (GAG) levels by colorimetric (DMMB) assay as a measure of aggrecan degradation. In bovine explants, IL-1 induced a profound increase in the amount of GAG released into the media during the 3 day culture. When cartilage was treated with IL-1 in combination with Formula IIc, there was a concentration-dependent reduction in GAG release as shown in Table 5.

[5] = tested on: HEK293 MSRII cells without human TRPV4 vector; assay: Whole cell patch clamp, HEK293 MSRII cells exposed to BacMam virus alone; format: cell-based; conditions: 3 μM
TRPV4 channel receptor [6] = target: T2, TRPV4 channel receptor; assay: Whole cell patch clamp, HEK293 MSRII cells transduced with human TRPV4 BacMam virus; format: cell-based; parameters: V5-His (from the vector's name only); expressed in transfected cells; host or cells: HEK293
From the text: Functional, cell-based assays presently utilized to evaluate the activity of TRPV4 channel receptor agonists (e.g., FLIPR) provide an indirect, downstream measure of channel activation or blockage. In order to more directly evaluate a compound's effect on TRPV4 channel receptor, procedures to electrophysiologically record current flow through TRPV4 channels have been established. These procedures utilize HEK293 MSRII cells transiently transduced with 5% human TRPV4 BacMam virus, a standard extracellular physiological saline solution, and a well established, potassium channel-blocking electrode (internal) solution (Vriens et al., PNAS, 2004). Standard whole cell patch clamp techniques were used to maintain cells at a holding potential of 0 mV between inductions of 200 msec, −100 mV to +100 mV ramp protocols every 5 seconds. The inset of FIG. 1 represents the inward and outward current amplitude at −100 mV and +100 mV, respectively, during each ramp protocol prior to (baseline) and throughout the administration of 100 nM Formula IId. The main body of FIG. 1 illustrates the recorded current flow in response to a −100 mV to +100 mV ramp at the five specific times labelled in the inset.

Question: Which IC50 (aggrecanase) does the source give for `CC(C)C[C@H](NC(=O)c1cc2ccccc2s1)C(=O)N[C@@H]1CCCN(S(=O)(=O)c2ccccc2C#N)CC1=O` [Formula IId, N-{(1s)-1-[({(4r)-1-[(2-Cyanophenyl)Sulfonyl]-3-Oxohexahydro-1H-Azepin-4-Yl}Amino)Carbonyl]-3-Methylbutyl}-1-Benzothiophene-2-Carboxamide] here?
Answer: The IC50 was 40 nM.

Question: And the “block of IL-1-induced collagen degradation” value [1]?
Answer: Its value is “partially, but effectively, blocked”.

Question: What about the “Ca Influx - FLEX (bovine) % effic.” value (TRPV4 channel receptor [2]) of the same molecule?
Answer: Its value is 79%.

Question: And the EC50 (TRPV4 channel receptor [2]; read-out: Ca Influx - FLEX (bovine) EC50)?
Answer: Its EC50 is 120 nM.

Question: What about the inhibition at 0.01 µM (human cartilage explants; Homo sapiens, IL-1 (100 ng/ml), 0.01 uM, relative to IL-1 stim. GAG release) of the same molecule?
Answer: Its inhibition at 0.01 µM is 35%.

Question: What about the inhibition at 0.1 µM (human cartilage explants; Homo sapiens, IL-1 (100 ng/ml), 0.1 uM, relative to IL-1 stim. GAG release) of the same molecule?
Answer: The inhibition at 0.1 µM was 89%.

Question: What about the inhibition at 1 µM (human cartilage explants; Homo sapiens, IL-1 (100 ng/ml), 1 uM, relative to IL-1 stim. GAG release) of the same molecule?
Answer: The inhibition at 1 µM was > 100%.

Question: What about the inhibition at 0.01 µM (human cartilage explants; Homo sapiens, unstimulated, 0.01 uM, relative to control GAG release) of the same molecule?
Answer: The inhibition at 0.01 µM was 12%.

Question: And the inhibition at 0.1 µM (human cartilage explants; Homo sapiens, unstimulated, 0.1 uM, relative to control GAG release)?
Answer: Its inhibition at 0.1 µM is 34%.

Question: And the inhibition at 1 µM (human cartilage explants; Homo sapiens, unstimulated, 1 uM, relative to control GAG release)?
Answer: Its inhibition at 1 µM is 45%.

Question: And the IC50 (human cartilage explants; Homo sapiens, estimated, 3-point concentration response)?
Answer: Its IC50 is 30 nM.

Question: What about the “GAG Mean ± SEM” value (human cartilage explants; IL-1 (100 ng/ml), 0.01 uM) of the same molecule?
Answer: Its value is 15.9 ± 1.6 µg/mg.

Question: What about the “GAG Mean ± SEM” value (human cartilage explants; IL-1 (100 ng/ml), 0.1 uM) of the same molecule?
Answer: The value was 8.2 ± 0.5 µg/mg.

Question: What about the “GAG Mean ± SEM” value (human cartilage explants; IL-1 (100 ng/ml), 1 uM) of the same molecule?
Answer: The value was 4.8 ± 0.5 µg/mg.

Question: And the “% inhibition” value (human cartilage explants; IL-1 (100 ng/ml), 1 uM, relative to IL-1 stim. GAG release)?
Answer: Its value is 113** %.

Question: What about the “blocking of aggrecan degradation in unstimulated human cartilage explants” value (human cartilage explants; absence of IL-1) of the same molecule?
Answer: The value was “effective in blocking aggrecan degradation”.

Question: And the “GAG Mean ± SEM” value (human cartilage explants; unstimulated control, 0.01 uM)?
Answer: Its value is 5.9 ± 0.3 µg/mg.

Question: And the “GAG Mean ± SEM” value (human cartilage explants; unstimulated control, 0.1 uM)?
Answer: The value was 4.4 ± 0.2 µg/mg.

Question: What about the “GAG Mean ± SEM” value (human cartilage explants; unstimulated control, 1 uM) of the same molecule?
Answer: The value was 3.7 ± 0.3 µg/mg.

Question: And the EC50 (TRPV4 channel receptor [3]; Ca Influx - FLEX (human) EC50, human chondrocytes)?
Answer: Its EC50 is 110 nM.

Question: What about the “Ca Influx - FLEX (human) % effic.” value (TRPV4 channel receptor [3]; human chondrocytes) of the same molecule?
Answer: The value was 179%.

Question: What about the IC50 [4] of the same molecule?
Answer: Its IC50 is 10 nM.

Question: And the “effect on membrane currents” value [5]?
Answer: Its value is “no measurable effect”.

Question: What about the “TRPV4 channel receptor-mediated current” value (TRPV4 channel receptor [6]; 100 nM, -100 mV to +100 mV ramp) of the same molecule?
Answer: Its value is “activated a human TRPV4 channel receptor”.

Question: And the “lowest concentration observed to activate the human TRPV4 channel receptor” value (TRPV4 channel receptor [6]; whole cell patch clamp)?
Answer: Its value is 10 nM.
